#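 Each compound was tested at five concentrations against cells in 96-well plates for 48 hours. Definition used: TGI = concentration required for complete inhibition of growth.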
# Key:
# Test in all cases: inhibition of tumour cell growth, NCI panel, 48 h
# EKVX NSCLC = system: EKVX NSCLC
# NCI-H460 lung = system: NCI-H460 lung
# SK-MEL-5 melanoma = system: SK-MEL-5 melanoma
# OVCAR-4 ovarian = system: OVCAR-4 ovarian
# A498 renal = system: A498 renal
# UACC-257 melanoma = system: UACC-257 melanoma
# ACHN renal = system: ACHN renal
# NCI-H23 lung = system: NCI-H23 lung
# PC-3 prostate = system: PC-3 prostate
# SK-OV-3 ovarian = system: SK-OV-3 ovarian
# SNB-19 CNS = system: SNB-19 CNS
# MOLT-4 leukemia = system: MOLT-4 leukemia
# MCF7 breast = system: MCF7 breast
SMILES,TGI (EKVX NSCLC),TGI (NCI-H460 lung),TGI (SK-MEL-5 melanoma),TGI (OVCAR-4 ovarian),TGI (A498 renal),TGI (UACC-257 melanoma),TGI (ACHN renal),TGI (NCI-H23 lung),TGI (PC-3 prostate),TGI (SK-OV-3 ovarian),TGI (SNB-19 CNS),TGI (MOLT-4 leukemia),TGI (MCF7 breast)
Cc1cc2ccccc2c[n+]1CC(=O)CC([O-])(C(F)(F)F)C(F)(F)F,> 100 µM,> 100 µM,> 100 µM,> 100 µM,> 100 µM,> 100 µM,> 100 µM,> 100 µM,> 100 µM,> 100 µM,> 100 µM,> 100 µM,–
CC(Nc1cc(Cl)cc(Cl)c1)c1ccncc1 (stereo not drawn),59.9 µM,73.3 µM,28.7 µM,> 100 µM,88.8 µM,58.6 µM,67.6 µM,71.1 µM,36.7 µM,–,> 100 µM,69.1 µM,34.3 µM
COC(=O)c1ccc(OCc2ccc3oc(=O)c(-c4ccccc4)nc3c2)cc1,> 100 µM,> 100 µM,> 100 µM,> 100 µM,–,> 100 µM,> 100 µM,> 100 µM,–,–,> 100 µM,> 100 µM,–
CN(C)c1ccc(/C=N/NC2=N/C(=C\c3ccco3)C(=O)N2)cc1,> 100 µM,> 100 µM,> 100 µM,–,> 100 µM,> 100 µM,> 100 µM,> 100 µM,> 100 µM,> 100 µM,> 100 µM,> 100 µM,–
CCCCNC(=S)Nc1nc(C(=O)NNS(=O)(=O)c2ccccc2)cs1,> 100 µM,–,31 µM,–,> 100 µM,53.7 µM,85.5 µM,> 100 µM,93.1 µM,> 100 µM,–,> 100 µM,> 100 µM
O=C1NC(N2CCOCC2)=N/C1=C\c1ccccc1O,> 100 µM,–,> 100 µM,> 100 µM,> 100 µM,> 100 µM,> 100 µM,> 100 µM,> 100 µM,> 100 µM,> 100 µM,> 100 µM,> 100 µM
CN(C)Cc1cc(C(=O)O)cc(CN(C)C)c1O,> 100 µM,> 100 µM,> 100 µM,> 100 µM,> 100 µM,> 100 µM,> 100 µM,> 100 µM,> 100 µM,> 100 µM,> 100 µM,–,> 100 µM
Cc1ccc2[nH]c(=O)c(-c3cnc(=O)[nH]n3)c(O)c2c1,> 100 µM,> 100 µM,> 100 µM,> 100 µM,> 100 µM,> 100 µM,> 100 µM,> 100 µM,> 100 µM,> 100 µM,–,> 100 µM,> 100 µM
O=C1/C(=C/c2cccs2)N=C(c2ccccc2)N1C1Nc2cc3c(cc2S1)NC(N1C(=O)/C(=C/c2cccs2)N=C1c1ccccc1)S3 (stereo not drawn),43.6 µM,> 100 µM,37.4 µM,96.9 µM,> 100 µM,> 100 µM,> 100 µM,43.6 µM,> 100 µM,–,–,59.6 µM,> 100 µM
CO[P@]1(=O)O[C@@H](c2ccccc2)[C@H](O)[C@]1(O)c1ccccc1,> 100 µM,> 100 µM,> 100 µM,> 100 µM,> 100 µM,> 100 µM,> 100 µM,> 100 µM,> 100 µM,> 100 µM,> 100 µM,–,> 100 µM
CN(C)Cc1cc(N=Nc2ccc(Cl)c(Cl)c2)ccc1O,25.6 µM,19.8 µM,25.2 µM,20.8 µM,23.9 µM,30.5 µM,16.2 µM,28.1 µM,23.8 µM,–,27.6 µM,24.4 µM,18.1 µM
CC(=O)O[C@H]1/C(=C/c2ccc(N(C)C)cc2)C[C@H]2[C@@H]3CC=C4C[C@@H](N5CCCC5)CC[C@]4(C)[C@H]3CC[C@]12C,> 100 µM,> 100 µM,> 100 µM,–,> 100 µM,> 100 µM,> 100 µM,> 100 µM,> 100 µM,> 100 µM,> 100 µM,> 100 µM,> 100 µM
O=C(CCCC(=O)N1CC(CCl)c2ccc([N+](=O)[O-])cc21)N1CC(CCl)c2ccc([N+](=O)[O-])cc21 (stereo not drawn),–,> 100 µM,> 100 µM,> 100 µM,> 100 µM,> 100 µM,> 100 µM,> 100 µM,> 100 µM,> 100 µM,> 100 µM,> 100 µM,> 100 µM
Cc1nnc2c3c(-c4ccccc4)c(-c4ccccc4)oc3nc(N(C)C)n12,> 100 µM,–,> 100 µM,> 100 µM,> 100 µM,> 100 µM,> 100 µM,> 100 µM,–,> 100 µM,> 100 µM,> 100 µM,> 100 µM
C/C(=N/O)c1cccc(Nc2nc3ccccc3c3[nH]c4ccccc4c23)c1,7.38 µM,4.74 µM,4.08 µM,6.96 µM,–,17.6 µM,7.17 µM,11.8 µM,8.05 µM,22.1 µM,19.2 µM,3.55 µM,5.63 µM
COc1ccc(-c2cc(-c3ccc(Nc4ccnc5cc(Cl)ccc45)cc3)nc(N)c2C#N)c2ccccc12,> 100 µM,> 100 µM,> 100 µM,> 100 µM,> 100 µM,> 100 µM,> 100 µM,> 100 µM,> 100 µM,–,> 100 µM,> 100 µM,> 100 µM
CCn1c2c(c3c(C(=O)OC)c(O)ccc31)C(=O)c1ccccc1C2=O,59.7 µM,27.9 µM,27.6 µM,37.5 µM,–,> 100 µM,21.9 µM,48.7 µM,42.7 µM,30.4 µM,> 100 µM,61.5 µM,70.8 µM
Brc1ccc2c(c1)C1=C(CO2)Cc2ccccc2O1,54.9 µM,–,28.2 µM,33.6 µM,45.2 µM,32.6 µM,33.3 µM,32.5 µM,32.9 µM,46.7 µM,–,66.1 µM,–
CN(C)c1ccc(/C=C2\N=C(c3ccccc3)N(c3nc4c(Cl)cc(Cl)cc4s3)C2=O)cc1,> 100 µM,> 100 µM,> 100 µM,> 100 µM,92.3 µM,> 100 µM,> 100 µM,–,> 100 µM,> 100 µM,> 100 µM,> 100 µM,> 100 µM
